This is an account of results in patent US20230357179A1, “RAF KINASE INHIBITORS AND METHODS OF USE THEREOF” (Deciphera Pharmaceuticals, LLC, priority 2021, published 2023).

For one assay, the target named is T1, B-Raf kinase (Homo sapiens, UniProt P15056).
T1 construct: GST (N); purchased Sigma
The assay can be described thus: Biochemical assay for B-Raf.1 (coupled pyruvate kinase/lactate dehydrogenase). The note with it: read-out: BRAF.1 IC50. The method in brief:
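NADH oxidation followed at 340 nm in a pyruvate kinase/lactate dehydrogenase-coupled assay with 0.13 nM B-Raf, 30.1 nM MEK substrate, 1 mM ATP, pH 7.5 Tris buffer, 1% DMSO. Monitored 6 h at 30 °C; rate taken from 4–5 h. IC50 from four-parameter sigmoidal fit.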

A further assay relates to A375 cells. Put plainly: A375 cell proliferation assay (1), resazurin, 96-well. The format is cell-based. The note with it: Homo sapiens, A-375, inhibition of cell proliferation. The method in brief:
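Viability was read by resazurin fluorescence at 540 nm excitation and 600 nm emission, using a 440 μM solution added for 5–6 h at the end of culture. IC50 came from the curve fit.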
In general terms: The colour change of resazurin is a common sign of viable cells or microbes.

A further assay deals with WM3928 cells. The assay can be described thus: WM3928 cell proliferation assay (1), resazurin, 96-well. The assay is classed as cell-based. Conditions: inhibition of cell proliferation. Put shortly: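 IC50 was derived from resazurin fluorescence (ex 540, em 600 nm) after a 6–7 h dye incubation. Before that, cells had 67–72 h of compound exposure at 37 °C, 5% CO2.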
In another assay the test system is Miapaca-2 cells. The assay can be described thus: MiaPaca-2 cell proliferation assay (1), resazurin, 96-well. Conditions: Homo sapiens, MIA PaCa-2, inhibition of cell proliferation. The format is cell-based. Put shortly: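 Three thousand cells per well in DMEM with 10% FBS and 2.5% horse serum exposed to serially diluted compound in triplicate for 67-72 h at 37 °C, 5% CO2. Viability by resazurin (additional 5-6 h), fluorescence ex 540/em 600 nm; IC50 calculated.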

Molecules are shown by their SMILES. A value given as a limit tells only on which side of the number the result lay.

T1 sequence (P15056 416-766): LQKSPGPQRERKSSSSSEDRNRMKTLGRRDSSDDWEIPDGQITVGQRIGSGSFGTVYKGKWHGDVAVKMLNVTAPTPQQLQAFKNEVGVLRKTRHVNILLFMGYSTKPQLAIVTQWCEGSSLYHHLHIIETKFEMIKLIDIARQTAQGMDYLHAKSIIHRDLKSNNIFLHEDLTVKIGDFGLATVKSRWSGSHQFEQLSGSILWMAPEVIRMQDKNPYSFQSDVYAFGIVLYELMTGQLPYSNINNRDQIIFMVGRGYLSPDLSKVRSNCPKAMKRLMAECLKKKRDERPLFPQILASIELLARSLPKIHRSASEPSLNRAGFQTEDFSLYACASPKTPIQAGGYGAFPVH

In general, IC50 refers to the midpoint of a concentration-inhibition curve. In the case of `Cc1cc(F)c(NC(=O)NCCC2(C)CC2)cc1-c1cccc(-c2cc(NC(=O)C3CC3)ncn2)c1` [Example 65], the IC50 on B-Raf kinase was ≤ 0.1 µM; with A375 cells, 1 to 10 µM; with WM3928 cells it was 0.1 to 0.5 µM; in the assay on Miapaca-2 cells, 1 to 10 µM.

`Cc1ccc(NC(=O)N2CC[C@H](C(F)(F)F)C2)cc1-c1cccc(-c2cc(NC(=O)C3CC3)ncn2)c1` [Example 200]: the IC50 at B-Raf kinase was ≤ 0.1 µM; in the assay on A375 cells it was 0.1 to 0.5 µM; in the assay on WM3928 cells it was ≤ 0.1 µM; in the assay on Miapaca-2 cells, 1 to 10 µM.

`Cc1cc(F)c(NC(=O)NCCC2(C)CC2)cc1-c1ccnc(-c2ccnc3c2CC(=O)N3)c1` [Example 79]: the 50% inhibitory concentration (IC50) is ≤ 0.1 µM on B-Raf kinase, 1 to 10 µM with A375 cells, 0.1 to 0.5 µM with WM3928 cells and 1 to 10 µM in the assay with Miapaca-2 cells.

Consider `COC(C)(C)CCNC(=O)Nc1cnc(C)c(-c2nccc(-c3ccnc(NC(=O)C4CC4)c3)n2)c1` [Example 82], for which the IC50 at B-Raf kinase fell in the range of 0.1 to 0.5 µM; with A375 cells, 1 to 10 µM; in the assay on WM3928 cells, 1 to 10 µM; in the assay with Miapaca-2 cells, 1 to 10 µM.

With `Cc1ccc(NC(=O)N2CC[C@H](C(C)C)C2)cc1-c1cncc(-c2cc(NC(=O)C3CC3)ncn2)c1` [Example 221], the IC50 on B-Raf kinase is ≤ 0.1 µM; in the assay with A375 cells it was ≤ 0.1 µM; in the assay on WM3928 cells, ≤ 0.1 µM; in the assay on Miapaca-2 cells, 0.5 to 1 µM.

In the case of `Cc1cc(F)c(NC(=O)NC2CC(C)(C)C2)cc1-c1cc(OCCO)nc(-c2ccnc(NC(=O)C3CC3)c2)c1` [Example 80], the IC50 on B-Raf kinase was ≤ 0.1 µM; in the assay with A375 cells, ≤ 0.1 µM; with WM3928 cells it was ≤ 0.1 µM; in the assay with Miapaca-2 cells, 1 to 10 µM.

Take `CC(=O)Nc1cc(-c2cc(-c3cc(NC(=O)NCCC4(C)CC4)c(F)cc3C)cc(OCCO)n2)ccn1` [Example 33]: the IC50 was ≤ 0.1 µM on B-Raf kinase, ≤ 0.1 µM with A375 cells, ≤ 0.1 µM in the assay with WM3928 cells and 0.1 to 0.5 µM in the assay on Miapaca-2 cells.

On to `COC(=O)Nc1cc(-c2cc(-c3cc(NC(=O)NCCC4(C)CC4)c(F)cc3C)cc(OCCO)n2)ccn1` [Example 77], for which the 50% inhibitory concentration (IC50) at B-Raf kinase was ≤ 0.1 µM; in the assay on A375 cells, ≤ 0.1 µM; with WM3928 cells, ≤ 0.1 µM; in the assay with Miapaca-2 cells it was 1 to 10 µM.

`Cc1ncc(NC(=O)NCCC(C)(C)F)cc1-c1ccnc(-c2ccnc(NC(=O)C3CC3)c2)c1` [Example 75]: the IC50 at B-Raf kinase was ≤ 0.1 µM; with A375 cells, 1 to 10 µM; in the assay with WM3928 cells, 0.5 to 1 µM; in the assay on Miapaca-2 cells, 1 to 10 µM.

As for `Cc1ccc(NC(=O)N2CC[C@@H](C(C)C)C2)cc1-c1cncc(-c2cc(NC(=O)C3CC3)ncn2)c1` [Example 217], the IC50 at B-Raf kinase was ≤ 0.1 µM; in the assay on A375 cells it was ≤ 0.1 µM; in the assay on WM3928 cells, ≤ 0.1 µM; in the assay with Miapaca-2 cells it was 0.5 to 1 µM.
